Source: patent publication US20230286928A1, “HETEROCYCLIC COMPOUNDS USEFUL IN THE TREATMENT OF DISEASE” (Epigen Biosciences, Inc., priority 2018, published 2023)

Target: T1, LPA1R (Homo sapiens, UniProt Q92633)
T1 construct: host or cells: LPA1R expressing cells (Millipore, GPCR Profiler)
Assay: Calcium flux assay: inhibition of LPA-stimulated Ca2+ flux (FLIPR, antagonist mode)
Format: cell-based
Details: LPA1R Ca2+ flux functional assay, LPA1R expressing cells challenged with EC80 of LPA, read-out: LPA1 R Antagonist Activity
Protocol: Inhibition of LPA-stimulated Ca^2+ flux was used to assess compound potency using FLIPR technology in a 96 well plate format. The assay buffer used was a modified Hanks Balanced Salt Solution (HBSS) where HBSS was supplemented to contain 20 mM HEPES and 2.5 mM Probenecid at pH7.4 (Millipore, GPCR Profiler®). LPA1R expressing cells (Millipore) were plated and prepared 24 hours prior to assay of test articles. Ca^2+ ion flux was assessed from fluorescence of a Fluo-based No Wash Ca^2+ dye. Antagonist data are generated from plates with LPA concentrations sufficient to generate 80% efficacy [EC80]. Percentage inhibition was calculated from a reduction of efficacy according to concentration of compounds of Formula I-VI. For dose responses the inhibition data was used to calculate compound IC50.
The agonist assay was conducted on a FLIPR^TETRA instrument where the test compound(s), vehicle controls, and reference agonist were added to the assay plate after a fluorescence baseline was established. The agonist assay was a total of 180 seconds and was used to assess each compound's ability to activate each GPCR assayed. Upon completion of the agonist assay, the assay plate was removed from the FLIPR^TETRA and incubated at 25° C. for seven (7) minutes. After the incubation period, the assay plate was placed back in the FLIPR^TETRA and the antagonist assay was initiated.
Antagonist Assay: Using EC80 potency values determined during the agonist assay, all pre-incubated sample compound wells were challenged with EC80 concentration of reference agonist after establishment of a fluorescence baseline. The antagonist assay was conducted using the same assay plate that was used for the agonist assay. The antagonist assay was conducted on a FLIPR^TETRA instrument where 9 vehicle controls and EC80 concentration of reference agonist were added to appropriate wells. The antagonist assay was a total of 180 seconds and was used to assess each compound's ability to inhibit each GPCR assayed.
Data Processing: All assay plate data were subjected to appropriate baseline corrections. After baseline corrections were applied, maximum fluorescence values were exported and data processed to calculate percentage activation (relative to Emax reference agonist and vehicle control values), percentage inhibition (relative to EC80 and vehicle control values), and additional statistical values (i.e. Z′, percentage variation between replicate data values) to assess the quality of each plate. Where assay plate data were rejected, additional experiments were conducted. All dose response curves were generated using GraphPad Prism. The curves were fit by utilizing “Sigmoidal Dose Response (Variable Slope)” equation where the bottom parameter was fixed to “0.” Where appropriate, the top parameter was fixed to “100” to better predict potency values when a full curve was not generated by the concentrations assayed.

T1 sequence (Q92633 whole entry): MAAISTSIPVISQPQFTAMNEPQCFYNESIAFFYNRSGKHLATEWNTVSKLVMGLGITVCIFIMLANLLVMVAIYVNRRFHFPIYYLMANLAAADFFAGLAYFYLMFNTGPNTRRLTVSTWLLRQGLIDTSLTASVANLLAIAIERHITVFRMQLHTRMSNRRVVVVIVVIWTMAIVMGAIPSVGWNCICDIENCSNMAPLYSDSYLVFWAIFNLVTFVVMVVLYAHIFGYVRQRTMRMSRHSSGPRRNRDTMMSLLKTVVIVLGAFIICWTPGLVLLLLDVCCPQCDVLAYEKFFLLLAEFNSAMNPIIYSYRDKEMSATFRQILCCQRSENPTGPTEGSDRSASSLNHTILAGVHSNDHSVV

SMILES | IC50 [nM]
C[C@@H](OC(=O)Nc1c(Cl)cnn1-c1ccc(-c2ccc(C3(C(=O)O)CC3)cc2Cl)cc1)c1ccccc1 [Compound 12, (R)-1-(2-chloro-4′-(4-chloro-5-(((1-phenylethoxy)carbonyl)amino)-1H-pyrazol-1-yl)-[1,1′-biphenyl]-4-yl)cyclopropane-1-carboxylic acid] | < 300
Cc1cc(C2(C(=O)O)CC2)ccc1-c1ccc(-n2ncc(F)c2NC(=O)O[C@H](C)c2ccccc2)cc1 [Compound 13, (R)-1-(4′-(4-fluoro-5-(((1-phenylethoxy)carbonyl)amino)-1H-pyrazol-1-yl)-2-methyl-[1,1′-biphenyl]-4-yl)cyclopropane-1-carboxylic acid] | < 300
Cc1cc(C2(C(=O)O)CC2)ccc1-c1ccc(-n2ncc(Cl)c2NC(=O)O[C@H](C)c2ccccc2)cc1 [Compound 14, (R)-1-(4′-(4-chloro-5-(((1-phenylethoxy)carbonyl)amino)-1H-pyrazol-1-yl)-2-methyl-[1,1′-biphenyl]-4-yl)cyclopropane-1-carboxylic acid] | < 300
C[C@@H](OC(=O)Nc1c(F)cnn1-c1ccc(-c2ccc(C3(C(N)=O)CC3)cc2)cc1)c1ccccc1Cl [Compound 15, (R)-1-(2-chlorophenyl)ethyl (1-(4′-(1-carbamoylcyclopropyl)-[1,1′-biphenyl]-4-yl)-4-fluoro-1H-pyrazol-5-yl)carbamate] | < 300
C[C@@H](OC(=O)Nc1c(F)cnn1-c1ccc(-c2ccc(C3(C(=O)NS(C)(=O)=O)CC3)cc2F)cc1)c1ccccc1Cl [Compound 16, (R)-1-(2-chlorophenyl)ethyl (4-fluoro-1-(2′-fluoro-4′-(1-((methylsulfonyl)carbamoyl)cyclopropyl)-[1,1′-biphenyl]-4-yl)-1H-pyrazol-5-yl)carbamate] | < 300
C[C@@H](OC(=O)Nc1c(F)cnn1-c1ccc(-c2ccc(C3(C(=O)NS(C)(=O)=O)CC3)cc2F)cc1)c1ccccc1 [Compound 17, (R)-1-phenylethyl (4-fluoro-1-(2′-fluoro-4′-(1-((methylsulfonyl)carbamoyl)cyclopropyl)-[1,1′-biphenyl]-4-yl)-1H-pyrazol-5-yl)carbamate] | < 300
C[C@@H](OC(=O)Nc1c(Cl)cnn1-c1ccc(-c2ccc(C3(C(=O)NS(C)(=O)=O)CC3)cc2F)cc1)c1ccccc1Cl [Compound 18, (R)-1-(2-chlorophenyl)ethyl (4-chloro-1-(2′-fluoro-4′-(1-((methylsulfonyl)carbamoyl)cyclopropyl)-[1,1′-biphenyl]-4-yl)-1H-pyrazol-5-yl)carbamate] | < 300
C[C@@H](OC(=O)Nc1c(Cl)cnn1-c1ccc(-c2ccc(C3(C(=O)NS(C)(=O)=O)CC3)cc2)cc1)c1ccccc1 [Compound 19, (R)-1-phenylethyl (4-chloro-1-(4′-(1-((methylsulfonyl)carbamoyl)cyclopropyl)-[1,1′-biphenyl]-4-yl)-1H-pyrazol-5-yl)carbamate] | < 300
C[C@@H](OC(=O)Nc1c(F)cnn1-c1ccc(-c2ccc(C3(C(=O)NS(C)(=O)=O)CC3)cc2)cc1)c1ccccc1Cl [Compound 20, (R)-1-(2-chlorophenyl)ethyl (4-fluoro-1-(4′-(1-((methylsulfonyl)carbamoyl)cyclopropyl)-[1,1′-biphenyl]-4-yl)-1H-pyrazol-5-yl)carbamate] | < 300
C[C@@H](OC(=O)Nc1c(F)cnn1-c1ccc(-c2ccc(C3(c4nnn[nH]4)CC3)cc2)cc1)c1ccccc1Cl [Compound 21, (R)-1-(2-chlorophenyl)ethyl (1-(4′-(1-(1H-tetrazol-5-yl)cyclopropyl)-[1,1′-biphenyl]-4-yl)-4-fluoro-1H-pyrazol-5-yl)carbamate] | 1000 to 50000
C[C@@H](OC(=O)Nc1c(Cl)cnn1-c1ccc(-c2ccc(C3(c4nnn[nH]4)CC3)cc2)cc1)c1ccccc1 [Compound 22, (R)-1-phenylethyl (1-(4′-(1-(1H-tetrazol-5-yl)cyclopropyl)-[1,1′-biphenyl]-4-yl)-4-chloro-1H-pyrazol-5-yl)carbamate] | < 300
C[C@@H](OC(=O)Nc1c(Cl)cnn1-c1ccc(-c2ccc(C3(c4nnn[nH]4)CC3)cc2)cc1)c1ccccc1Cl [Compound 23, (R)-1-(2-chlorophenyl)ethyl (1-(4′-(1-(1H-tetrazol-5-yl)cyclopropyl)-[1,1′-biphenyl]-4-yl)-4-chloro-1H-pyrazol-5-yl)carbamate] | 1000 to 50000
C[C@@H](OC(=O)Nc1c(Cl)cnn1-c1ccc(-c2ccc(C3(C(=O)NC#N)CC3)cc2)cc1)c1ccccc1 [Compound 24, (R)-1-phenylethyl (4-chloro-1-(4′-(1-(cyanocarbamoyl)cyclopropyl)-[1,1′-biphenyl]-4-yl)-1H-pyrazol-5-yl)carbamate] | 1000 to 50000
C[C@@H](OC(=O)Nc1c(Cl)cnn1-c1ccc(-c2ccc(C3(C(=O)NC#N)CC3)cc2)cc1)c1ccccc1Cl [Compound 25, (R)-1-(2-chlorophenyl)ethyl (4-chloro-1-(4′-(1-(cyanocarbamoyl)cyclopropyl)-[1,1′-biphenyl]-4-yl)-1H-pyrazol-5-yl)carbamate] | 1000 to 50000
C[C@@H](OC(=O)Nc1c(F)cnn1-c1ccc(-c2ccc(C3(C(=O)NC#N)CC3)cc2F)cc1)c1ccccc1Cl [Compound 26, (R)-1-(2-chlorophenyl)ethyl (1-(4′-(1-(cyanocarbamoyl)cyclopropyl)-2′-fluoro-[1,1′-biphenyl]-4-yl)-4-fluoro-1H-pyrazol-5-yl)carbamate] | < 300
C[C@@H](OC(=O)Nc1c(C#N)cnn1-c1ccc(-c2ccc(C(C)(C)C(=O)O)cc2)cc1)c1ccccc1Cl [Compound 27, (R)-2-(4′-(5-(((1-(2-chlorophenyl)ethoxy)carbonyl)amino)-4-cyano-1H-pyrazol-1-yl)-[1,1′-biphenyl]-4-yl)-2-methylpropanoic acid] | < 300
C[C@@H](OC(=O)Nc1c(C#N)cnn1-c1ccc(-c2ccc(C(C)(C)C(=O)O)cc2)cc1)c1ccccc1 [Compound 28, (R)-2-(4′-(4-cyano-5-(((1-phenylethoxy)carbonyl)amino)-1H-pyrazol-1-yl)-[1,1′-biphenyl]-4-yl)-2-methylpropanoic acid] | < 300
